Assay results as given in PubChem BioAssay (NCI).
“And” between values parts separate entries of the source, which are not always exact repeats. Equal values may be shown once.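 Results reflect a 48-hour exposure of cells in 96-well plates to compound at five concentrations. At the GI50, growth is halved. TGI: total growth inhibition.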

How the values were obtained:
Test in all cases: inhibition of tumour cell growth, NCI panel, 48 h
786-0 renal = system: 786-0 renal
A498 renal = system: A498 renal
A549 NSCLC = system: A549 NSCLC
ACHN renal = system: ACHN renal
BT-549 breast = system: BT-549 breast
CAKI-1 renal = system: CAKI-1 renal
COLO 205 colon = system: COLO 205 colon
DU-145 prostate = system: DU-145 prostate
EKVX NSCLC = system: EKVX NSCLC
HCC-2998 colon = system: HCC-2998 colon
HCT-116 colon = system: HCT-116 colon
HCT-15 colon = system: HCT-15 colon
HOP-92 NSCLC = system: HOP-92 NSCLC
HS 578T breast = system: HS 578T breast
HT29 colon = system: HT29 colon
IGROV1 ovarian = system: IGROV1 ovarian
K-562 leukemia = system: K-562 leukemia
KM12 colon = system: KM12 colon
LOX IMVI melanoma = system: LOX IMVI melanoma
M14 melanoma = system: M14 melanoma
MALME-3M melanoma = system: MALME-3M melanoma
MCF7 breast = system: MCF7 breast
MDA-MB-231 breast = system: MDA-MB-231 breast
MDA-MB-435 = system: MDA-MB-435
MDA-N = system: MDA-N
MOLT-4 leukemia = system: MOLT-4 leukemia
NCI-H226 lung = system: NCI-H226 lung
NCI-H23 lung = system: NCI-H23 lung
NCI-H460 lung = system: NCI-H460 lung
NCI-H522 lung = system: NCI-H522 lung
NCI/ADR-RES ovarian = system: NCI/ADR-RES ovarian
OVCAR-3 ovarian = system: OVCAR-3 ovarian
OVCAR-4 ovarian = system: OVCAR-4 ovarian
OVCAR-5 ovarian = system: OVCAR-5 ovarian
OVCAR-8 ovarian = system: OVCAR-8 ovarian
PC-3 prostate = system: PC-3 prostate
RPMI-8226 leukemia = system: RPMI-8226 leukemia
RXF 393 renal = system: RXF 393 renal
SF-268 CNS = system: SF-268 CNS
SF-295 CNS = system: SF-295 CNS
SF-539 CNS = system: SF-539 CNS
SK-MEL-2 melanoma = system: SK-MEL-2 melanoma
SK-MEL-28 melanoma = system: SK-MEL-28 melanoma
SK-MEL-5 melanoma = system: SK-MEL-5 melanoma
SN12C renal = system: SN12C renal
SNB-19 CNS = system: SNB-19 CNS
SNB-75 CNS = system: SNB-75 CNS
SR leukemia = system: SR leukemia
SW-620 colon = system: SW-620 colon
T-47D breast = system: T-47D breast
TK-10 renal = system: TK-10 renal
U251 CNS = system: U251 CNS
UACC-257 melanoma = system: UACC-257 melanoma
UACC-62 melanoma = system: UACC-62 melanoma
UO-31 renal = system: UO-31 renal
CCRF-CEM leukemia = system: CCRF-CEM leukemia
HL-60(TB) leukemia = system: HL-60(TB) leukemia
HOP-62 NSCLC = system: HOP-62 NSCLC
SK-OV-3 ovarian = system: SK-OV-3 ovarian

`CCOC(=O)CSc1nc2ccccc2c(=O)n1N` was tested, and the TGI (786-0 renal) was > 100 µM, the TGI (A498 renal) was > 100 µM and the TGI (A549 NSCLC) was > 100 µM. The TGI (ACHN renal) was > 100 µM, the TGI (BT-549 breast) was > 100 µM and the TGI (CAKI-1 renal) was > 100 µM. The TGI (COLO 205 colon) was > 100 µM, the TGI (DU-145 prostate) was > 100 µM and the TGI (EKVX NSCLC) was > 100 µM. For the same compound, the TGI (HCC-2998 colon) was > 100 µM, the TGI (HCT-116 colon) was > 100 µM and the TGI (HCT-15 colon) was > 100 µM. The TGI (HOP-92 NSCLC) was > 100 µM, the TGI (HS 578T breast) was > 100 µM and the TGI (HT29 colon) was > 100 µM. The TGI (IGROV1 ovarian) was > 100 µM, the TGI (K-562 leukemia) was > 100 µM and the TGI (KM12 colon) was > 100 µM. The TGI (LOX IMVI melanoma) was > 100 µM, the TGI (M14 melanoma) was > 100 µM and the TGI (MALME-3M melanoma) was > 100 µM. For the same compound, the TGI (MCF7 breast) was > 100 µM, the TGI (MDA-MB-231 breast) was > 100 µM and the TGI (MDA-MB-435) was > 100 µM. For the same compound, the TGI (MDA-N) was > 100 µM, the TGI (MOLT-4 leukemia) was > 100 µM and the TGI (NCI-H226 lung) was > 100 µM. The TGI (NCI-H23 lung) was > 100 µM, the TGI (NCI-H460 lung) was > 100 µM and the TGI (NCI-H522 lung) was > 100 µM. For the same compound, the TGI (NCI/ADR-RES ovarian) was > 100 µM, the TGI (OVCAR-3 ovarian) was > 100 µM and the TGI (OVCAR-4 ovarian) was > 100 µM. The TGI (OVCAR-5 ovarian) was > 100 µM, the TGI (OVCAR-8 ovarian) was > 100 µM and the TGI (PC-3 prostate) was > 100 µM. For the same compound, the TGI (RPMI-8226 leukemia) was > 100 µM, the TGI (RXF 393 renal) was > 100 µM and the TGI (SF-268 CNS) was > 100 µM. The TGI (SF-295 CNS) was > 100 µM, the TGI (SF-539 CNS) was > 100 µM and the TGI (SK-MEL-2 melanoma) was > 100 µM. For the same compound, the TGI (SK-MEL-28 melanoma) was > 100 µM, the TGI (SK-MEL-5 melanoma) was > 100 µM and the TGI (SN12C renal) was > 100 µM. For the same compound, the TGI (SNB-19 CNS) was > 100 µM, the TGI (SNB-75 CNS) was > 100 µM and the TGI (SR leukemia) was > 100 µM. The TGI (SW-620 colon) was > 100 µM, the TGI (T-47D breast) was > 100 µM and the TGI (TK-10 renal) was > 100 µM. For the same compound, the TGI (U251 CNS) was > 100 µM, the TGI (UACC-257 melanoma) was > 100 µM and the TGI (UACC-62 melanoma) was > 100 µM. The TGI (UO-31 renal) was > 100 µM.

In the case of `CC1OC(OC2C(OC(=O)[C@]34CCC(C)(C)C[C@H]3C3=CC[C@@H]5[C@@]6(C)CC[C@H](OC7OC(C(=O)O)C(O)C(O)C7O)C(C)(C)[C@@H]6CC[C@@]5(C)[C@]3(C)CC4)OCC(O)C2O)C(O)C(O)C1OC1OCC(O)C(O)C1O` (stereo partly specified), the TGI (786-0 renal) is reported as > 100 µM, the TGI (A498 renal) is reported as 33.2 µM and 35.7 µM and the TGI (A549 NSCLC) is reported as > 100 µM. The GI50 (BT-549 breast) was 40 µM and 18.4 µM, the TGI (BT-549 breast) was > 100 µM and 37.3 µM and the TGI (CAKI-1 renal) was > 100 µM. For the same compound, the TGI (CCRF-CEM leukemia) was > 100 µM, the TGI (COLO 205 colon) was 31.2 µM and 30.6 µM and the GI50 (DU-145 prostate) was > 100 µM and 45.9 µM. The TGI (DU-145 prostate) was > 100 µM, the TGI (EKVX NSCLC) was 79.3 µM and 48.4 µM and the TGI (HCC-2998 colon) was 33.6 µM and 34 µM. The TGI (HCT-116 colon) was > 100 µM, the TGI (HCT-15 colon) was > 100 µM and the TGI (HL-60(TB) leukemia) was 73.5 µM and 45.8 µM. For the same compound, the GI50 (HOP-62 NSCLC) was > 100 µM and 25.5 µM, the TGI (HOP-62 NSCLC) was > 100 µM and 55.6 µM and the TGI (HOP-92 NSCLC) was 99.8 µM and 43.7 µM. The GI50 (HS 578T breast) was > 100 µM and 45.5 µM, the TGI (HS 578T breast) was > 100 µM and the TGI (HT29 colon) was > 100 µM and 30.1 µM. For the same compound, the TGI (IGROV1 ovarian) was > 100 µM, the GI50 (K-562 leukemia) was 58.7 µM and 28 µM and the TGI (K-562 leukemia) was > 100 µM and 76.9 µM. The GI50 (KM12 colon) was 37.9 µM and 17.1 µM, the TGI (KM12 colon) was > 100 µM and 34 µM and the TGI (LOX IMVI melanoma) was > 100 µM. The TGI (M14 melanoma) was 56 µM and 35.6 µM, the TGI (MALME-3M melanoma) was > 100 µM and the TGI (MCF7 breast) was > 100 µM. The TGI (MDA-MB-231 breast) was 60.4 µM and 35.4 µM, the TGI (MDA-MB-435) was 34.8 µM and the TGI (MDA-N) was 37.8 µM and 36.2 µM. The GI50 (MOLT-4 leukemia) was > 100 µM and 36.9 µM, the TGI (MOLT-4 leukemia) was > 100 µM and the TGI (NCI-H226 lung) was > 100 µM. The TGI (NCI-H23 lung) was 42.5 µM and 38.3 µM, the TGI (NCI-H460 lung) was > 100 µM and the TGI (NCI-H522 lung) was > 100 µM. For the same compound, the TGI (NCI/ADR-RES ovarian) was > 100 µM, the TGI (OVCAR-3 ovarian) was > 100 µM and the TGI (OVCAR-4 ovarian) was > 100 µM. The TGI (OVCAR-5 ovarian) was > 100 µM, the TGI (OVCAR-8 ovarian) was > 100 µM and the GI50 (PC-3 prostate) was 66.9 µM and 25.2 µM. The TGI (PC-3 prostate) was > 100 µM and 74.7 µM, the GI50 (RPMI-8226 leukemia) was 54.5 µM and 25.6 µM and the TGI (RPMI-8226 leukemia) was > 100 µM and 71.5 µM. For the same compound, the TGI (RXF 393 renal) was > 100 µM, the TGI (SF-268 CNS) was > 100 µM and the GI50 (SF-295 CNS) was 53.5 µM and 24 µM. The TGI (SF-295 CNS) was > 100 µM and 58.6 µM, the TGI (SK-MEL-2 melanoma) was > 100 µM and 63.7 µM and the TGI (SK-MEL-28 melanoma) was 34.4 µM and 58.9 µM. The GI50 (SK-MEL-5 melanoma) was > 100 µM and 28.3 µM, the TGI (SK-MEL-5 melanoma) was > 100 µM and the TGI (SK-OV-3 ovarian) was > 100 µM. For the same compound, the TGI (SN12C renal) was 50.5 µM and 40.5 µM, the GI50 (SNB-19 CNS) was > 100 µM and 47.5 µM and the TGI (SNB-19 CNS) was > 100 µM. For the same compound, the GI50 (SNB-75 CNS) was 80.6 µM and 24.7 µM, the TGI (SNB-75 CNS) was > 100 µM and 76.8 µM and the GI50 (SR leukemia) was 46.2 µM and 22.5 µM. The TGI (SR leukemia) was > 100 µM and 77.1 µM, the GI50 (SW-620 colon) was 98 µM and 45.1 µM and the TGI (SW-620 colon) was > 100 µM. The TGI (T-47D breast) was > 100 µM, the TGI (U251 CNS) was > 100 µM and the TGI (UACC-257 melanoma) was 93.1 µM and > 100 µM. The TGI (UACC-62 melanoma) was 86.5 µM and > 100 µM and the TGI (UO-31 renal) was 39.1 µM and 34.8 µM.
